Source: patent publication US12492182B2, “Hydroxytriazine compounds and pharmaceutical use thereof” (Japan Tobacco Inc., priority 2015, dated 2025)
Read-outs that look alike come from different tables or passages of the source.

Legend:
A549 cell = experiment: Evaluation of PGE2 production inhibitory action using A549 cell (IL-1β stimulated); assay type: cell-based, human
Experimental: Experimental Example 2: Evaluation of PGE2 Production Inhibitory Action Using A549 Cell
A549 cell (Japan Health Sciences Foundation Research Resources Bank), which is cell line derived from humans lung cancer, was suspended in assay medium (Ham's F-12K (Wako, #080-08565) containing 2% FBS (Hyclone Laboratories, #SH30910.03), 100 units/mL penicillin and 100 μg/mL streptomycin (Invitrogen, #15140-122)), the suspension was added at 2.5×10^4 cells/100 μL/well to 96 well flat-bottom plate (Corning, #353072), and the plate was left standing for 20 hr in a CO2 incubator set at 37° C. The test article was serially diluted with DMSO (Nacalai Tesque, #13407-45), and then 20-fold diluted with the assay medium to prepare a test article solution having a ten-fold concentration of the final concentration. The final DMSO concentration during the reaction was set to 0.5% (v/v). The medium was removed from the plate in which the cell was added, new assay medium was added at 160 μL/well to the plate, and the plate was left standing for 10 min in a CO2 incubator. Then, the test article solution was added at 20 μL/well to the plate, and the plate was left standing for 30 min in a CO2 incubator. Next, recombinant humans IL-1β (R&D Systems, #201-LB) as a stimulant to enhance PGE2 production due to increase of mPGES-1 mRNA expression was added at 20 μL/well (the final concentration was 1 ng/mL) to the plate, and the plate was left standing for 18 hr in a CO2 incubator. The supernatant was collected at 180 μL/well, and the PGE2 concentration was measured using Prostaglandin E2 assay (CISbio Bioassays, #62P2APEC) according to the manual. As the reference standard for analytical curve, PGE2 (Cayman Chemical, #14010) was used. Using EnVision 2104 (Perkin Elmer), the time-resolved fluorescence at 620 nm and 665 nm relative to the excitation light at 337 nm was measured. PGE2 concentration was extrapolated from the PGE2 analytical curve. Average of the PGE2 concentrations of the respectively-treated wells was used as the data.
The PGE2 production inhibitory activity (%) of the test article was calculated according to the following Formula 3. PGE2 production inhibitory activity(%)=(PGE2A−PGE2X)/(PGE2A−PGE2B)×100 [Formula 3] • PGE2A: PGE2 concentration of vehicle-treated well • PGE2B: PGE2 concentration of blank well (no addition of recombinant humans IL-1B) • PGE2X: PGE2 concentration of test article-treated well

human mPGES-1 = target: T1, human mPGES-1 (Homo sapiens, UniProt O14684); experiment: Evaluation of human mPGES-1 enzyme inhibitory activity (HTRF measurement of PGE2); assay type: biochemical; settings: IC50 value; microsome fraction of CHO-S cells expressing human mPGES-1, PGH2 substrate, PGE2 by HTRF; read-out: humans mPGES-1 enzyme inhibitory activity
T1 construct: made in house; host or cells: Chinese hamster ovary-derived cells (FreeStyle CHO-S), transient transfection of pcDNA3.1(+)/human mPGES-1; microsome fraction
T1 sequence (O14684 1-152): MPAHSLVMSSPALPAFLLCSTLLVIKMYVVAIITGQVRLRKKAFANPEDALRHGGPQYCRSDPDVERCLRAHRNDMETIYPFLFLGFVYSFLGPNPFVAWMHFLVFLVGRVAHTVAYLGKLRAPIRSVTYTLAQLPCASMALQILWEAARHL
Experimental: Experimental Example 1: Evaluation of Human mPGES-1 Enzyme Inhibitory Activity
The human mPGES-1 enzyme inhibitory activity of a test article was evaluated according to the report of Xu et al. (XU, D et al. MF63 [2-(6-chloro-1H-phenanthro[9,10-d]imidazol-2-yl)-isophthalonitrile], a selective microsomal prostaglandin E synthase-1 inhibitor relieves pyresis and pain in preclinical models of inflammation. J Pharmacol Exp Ther. September 2008, Vol. 326, No. 3, pages 754-763). The amount of PGE2 produced by human mPGES-1 in the presence of a test article was measured by the HTRF (homogeneous time resolved fluorescence) method, and the human mPGES-1 enzyme inhibitory activity of the test article was determined.
1) Preparation of Human mPGES-1 Expressing Cell Microsome Fraction
A DNA fragment containing human mPGES-1, which is added with a BamHI recognition cleavage sequence just before the translation initiation codon and an EcoRI recognition cleavage sequence just after the translation termination codon, was amplified by the PCR (Polymerase Chain Reaction) method using a human mPGES-1 expression plasmid DNA (pME-18S/iPGES-1) prepared in-house as a template. The purified DNA fragment was digested with BamHI and EcoRI, and ligated to pcDNA3.1(+) (Invitrogen, model number V790-20), similarly_digested with BamHI and EcoRI, by using a DNA Ligation kit ver. 2.1 (Takara Bio, model number 6022). The human mPGES-1 expression plasmid DNA was isolated from Escherichia coli DH5a (TOYOBO, model number DNA-903) transformed with the obtained ligation product. The base sequence of human mPGES-1 cloned to a vector was determined by the Dye Terminator method using BigDye Terminator v3.1 Cycle Sequencing Kit (Applied Biosystems, #4337455). The determined sequence was identical with the sequence of the protein translational region of human mPGES-1 (Accession number NM 004878) registered in the NCBI Reference Database.
Human mPGES-1 expression plasmid DNA was transfected into Chinese hamster ovary-derived cells (FreeStyle CHO-S Cell, Invitrogen, #R^800-07) by using a transgene reagent (FreeStyle MAX Reagent (Invitrogen, #16447-100)), and cultured with shaking (8% CO2, 37° C.) in a medium containing 8 mmol/L L-glutamine (GIBCO FreeStyle CHO Expression Medium, Invitrogen, #12651-022) for 48 hr.
The CHO-S cells were suspended in Homogenate Buffer (100 mmol/L potassium phosphate (pH 7.4), 250 mmol/L Sucrose, 100 mmol/L EDTA, complete EDTA free (Roche, #1873580)). Using an ultrasonic disruptor UD-201 (Tomy Seiko), the suspended cells were disrupted at output:3, duty cycle:50 for 30 seconds. The precipitate was removed by centrifugation (1,000×g, 5 min, 4° C.), and the supernatant was centrifuged (5,000×g, 10 min, 4° C.). The supernatant was further centrifuged (105,000×g, 60 min, 4° C.). The obtained precipitate was suspended in Resuspension Buffer (100 mmol/L potassium phosphate (pH 7.4), 250 mmol/L sucrose, 100 mmol/L EDTA, 10% glycerol) to give a microsome fraction.
The protein concentration of the microsome fraction was measured by the Bradford method (Protein Assay Kit, Bio-Rad). The microsome fraction was rapidly frozen in liquid nitrogen and preserved at −80° C. Human mPGES-1 in the microsome fraction was detected by Western Blot using rabbit anti-mPGES-1 polyclonal antibody (ThermoFisher Scientific, #PA1-10264).
2) Evaluation of Human mPGES-1 Enzyme Inhibitory Activity
A test article solution diluted with 0.1 mol/L potassium phosphate, pH 7.4 (hereinafter to be referred to as KPB) or DMSO (Nacalai Tesque, #13407-45) was added at 5 μL/well to 96 well V-bottom plate (Corning, #3363). The final DMSO concentration during the reaction was set to 2%(v/v). Furthermore, a microsome fraction of CHO-S cells expressing human mPGES-1, which was diluted with reduced GSH (12.5 mmol/L KPB solution, SIGMA, #G6529-25G) such that the protein concentration was 5 μg/mL, was added at 20 μL/well. […]

[1] = A549 cell, recombinant human IL-1β stimulation, read-out: cell PGE2 production inhibitory activity (IC50 value)
[2] = Homo sapiens, A549, A549 cell, recombinant human IL-1β stimulation, read-out: cell PGE2 production inhibitory activity (IC50 value)
[3] = Homo sapiens, A549, 18 h, IC50 value, A549 cell, recombinant IL-1β 1 ng/mL, 18 hr, PGE2 in supernatant, read-out: cell PGE2 production inhibitory activity

Row | Structure (SMILES) | IC50 (A549 cell; [1]) [nM] | IC50 (human mPGES-1) [nM] | IC50 (A549 cell; [2]) [nM] | IC50 (A549 cell; [3]) [nM]
1 | CCC(OC)(C(=O)NCc1ccc(Cl)c(-c2nc(O)nc(-c3cccc(C(C)C)c3)n2)c1)C(F)(F)F (single isomer, unassigned) [Example 132] | 4.8 | 0.8 | – | –
2 | CCC(OC)(C(=O)NCc1ccc(Cl)c(-c2nc(O)nc(-c3cccc(C(C)C)c3)n2)c1)C(F)(F)F (single isomer, unassigned) [Example 134] | 19 | 1.7 | – | –
3 | CCC[C@@H](C)Oc1ccc(-c2nc(O)nc(-c3cc(CNC(=O)C(CC)(OC)C(F)(F)F)ccc3Cl)n2)cn1 (single isomer, unassigned) [Example 142] | – | 7.7 | 2.1 | –
4 | CCC[C@@H](C)Oc1ccc(-c2nc(O)nc(-c3cc(CNC(=O)C(CC)(OC)C(F)(F)F)ccc3Cl)n2)cn1 (single isomer, unassigned) [Example 143] | 1.6 | 3.9 | – | –
5 | CCC[C@H](C)Oc1ccc(-c2nc(O)nc(-c3cc(CNC(=O)C(CC)(OC)C(F)(F)F)ccc3Cl)n2)cn1 (single isomer, unassigned) [Example 144] | – | 3.9 | 1.6 | –
6 | CCC[C@H](C)Oc1ccc(-c2nc(O)nc(-c3cc(CNC(=O)C(CC)(OC)C(F)(F)F)ccc3Cl)n2)cn1 (single isomer, unassigned) [Example 145] | 1.7 | 4.5 | – | –
7 | CCCOc1cccc(-c2nc(O)nc(-c3cc(CNC(=O)C(C)(C)C(F)(F)F)ccc3Cl)n2)c1 [Example 1] | – | 0.9 | – | 27
8 | CCCOc1ccc(-c2nc(O)nc(-c3cc(CNC(=O)C(C)(C)C(F)(F)F)ccc3Cl)n2)cn1 [Example 2] | – | 1.1 | – | 8.6
9 | CCCCOc1cccc(-c2nc(O)nc(-c3cc(CNC(=O)C(C)(C)C(F)(F)F)ccc3Cl)n2)c1 [Example 3] | – | 2.1 | – | 27
10 | CCCOc1ccc(-c2nc(O)nc(-c3cc(CNC(=O)C(C)(C)C(F)(F)F)ccc3Cl)n2)cc1C(C)C [Example 4] | – | 12 | – | 2.9
11 | CCCCc1cccc(-c2nc(O)nc(-c3cc(CNC(=O)C(C)(C)C(F)(F)F)ccc3Cl)n2)c1 [Example 5] | – | 1.1 | – | 30
12 | CCC(C)(C)C(=O)NCc1ccc(Cl)c(-c2nc(O)nc(-c3cccc(C(C)C)c3)n2)c1 [Example 6] | – | 0.4 | – | 23
13 | CCCC(C)(C)C(=O)NCc1ccc(Cl)c(-c2nc(O)nc(-c3cccc(C(C)C)c3)n2)c1 [Example 7] | – | 1 | – | 68
14 | CCC1(C(=O)NCc2ccc(Cl)c(-c3nc(O)nc(-c4cccc(C(C)C)c4)n3)c2)CC1 [Example 8] | – | 0.7 | – | 14
15 | CCOc1cccc(-c2nc(O)nc(-c3cc(CNC(=O)C(C)(C)C(F)(F)F)ccc3Cl)n2)c1 [Example 9] | – | 0.7 | – | 37
16 | CCCOc1cc(C)cc(-c2nc(O)nc(-c3cc(CNC(=O)C(C)(C)C(F)(F)F)ccc3Cl)n2)c1 [Example 10] | – | 1.7 | – | 49
17 | Cc1cc(-c2nc(O)nc(-c3cc(CNC(=O)C(C)(C)C(F)(F)F)ccc3Cl)n2)cc(C(C)(C)C)c1 [Example 11] | – | 0.2 | – | 17
18 | COCC(C)(C)C(=O)NCc1ccc(Cl)c(-c2nc(O)nc(-c3cccc(C(C)C)c3)n2)c1 [Example 12] | – | 3.2 | – | 350
19 | COCC1(C(=O)NCc2ccc(Cl)c(-c3nc(O)nc(-c4cccc(C(C)C)c4)n3)c2)CC1 [Example 13] | – | 21 | – | 1000
20 | CCCCOc1ccc(-c2nc(O)nc(-c3cc(CNC(=O)C(C)(C)C(F)(F)F)ccc3Cl)n2)cn1 [Example 14] | – | 1.2 | – | 4.7
21 | CCC(C)(CC)C(=O)NCc1ccc(Cl)c(-c2nc(O)nc(-c3cccc(C(C)C)c3)n2)c1 [Example 15] | – | 0.5 | – | 120
22 | CC(C)c1cccc(-c2nc(O)nc(-c3cc(CNC(=O)C4(C)CCCCC4)ccc3Cl)n2)c1 [Example 16] | – | 0.4 | – | 34
23 | CCOC(C)(C)C(=O)NCc1ccc(Cl)c(-c2nc(O)nc(-c3cccc(C(C)C)c3)n2)c1 [Example 17] | – | 67 | – | 1300
24 | CC(C)c1cc(-c2nc(O)nc(-c3cc(CNC(=O)C(C)(C)C(F)(F)F)ccc3Cl)n2)cc(C(C)C)c1 [Example 18] | – | 5.3 | – | 260
25 | CC(C)(C)COc1ccc(-c2nc(O)nc(-c3cc(CNC(=O)C(C)(C)C(F)(F)F)ccc3Cl)n2)cn1 [Example 19] | – | 3.3 | – | 1.7
26 | CC(C)(C)c1cc(-c2nc(O)nc(-c3cc(CNC(=O)C(C)(C)C(F)(F)F)ccc3Cl)n2)cc(C(C)(C)C)c1 [Example 20] | – | 30 | – | 150
27 | CCCCCOc1ccc(-c2nc(O)nc(-c3cc(CNC(=O)C(C)(C)C(F)(F)F)ccc3Cl)n2)cn1 [Example 21] | – | 3.9 | – | 2.2
